One compound from PMC11569172 (Scientific Reports, 2024) can be followed below.

The target in experiment [1] is STING (Homo sapiens, UniProt Q86WV6). The experiment can be described thus: SPR. The class given is binding.
In experiment [2] the target is cGAS (Homo sapiens, UniProt Q8N884). The experiment can be described thus: SPR. Format: binding.
Sequence of cGAS (Q8N884 whole entry): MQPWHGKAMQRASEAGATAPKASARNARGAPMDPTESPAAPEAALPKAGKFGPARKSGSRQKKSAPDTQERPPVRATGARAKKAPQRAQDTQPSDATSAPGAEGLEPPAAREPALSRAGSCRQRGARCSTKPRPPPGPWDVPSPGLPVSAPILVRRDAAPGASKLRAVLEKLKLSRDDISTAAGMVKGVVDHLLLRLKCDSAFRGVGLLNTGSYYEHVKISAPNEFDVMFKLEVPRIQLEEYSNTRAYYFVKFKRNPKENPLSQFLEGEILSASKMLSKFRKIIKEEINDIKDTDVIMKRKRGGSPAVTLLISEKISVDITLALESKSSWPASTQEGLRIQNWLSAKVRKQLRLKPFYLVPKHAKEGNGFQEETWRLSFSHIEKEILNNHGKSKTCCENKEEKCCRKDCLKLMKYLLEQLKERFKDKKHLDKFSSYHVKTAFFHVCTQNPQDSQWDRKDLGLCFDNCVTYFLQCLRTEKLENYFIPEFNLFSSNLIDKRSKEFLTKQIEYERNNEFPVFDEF

Sequence of STING (Q86WV6 whole entry): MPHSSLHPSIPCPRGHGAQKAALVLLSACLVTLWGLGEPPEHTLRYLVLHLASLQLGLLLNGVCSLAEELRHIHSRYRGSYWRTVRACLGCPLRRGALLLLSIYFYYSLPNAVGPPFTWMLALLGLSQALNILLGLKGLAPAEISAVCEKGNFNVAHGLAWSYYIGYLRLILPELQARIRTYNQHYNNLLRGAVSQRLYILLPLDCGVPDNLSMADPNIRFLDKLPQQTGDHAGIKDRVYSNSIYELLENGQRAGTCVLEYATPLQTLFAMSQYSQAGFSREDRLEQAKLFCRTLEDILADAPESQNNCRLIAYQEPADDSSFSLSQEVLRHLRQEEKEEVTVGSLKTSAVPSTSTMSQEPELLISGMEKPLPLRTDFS

Usually Kd stands for the concentration at which binding is half-saturated. Low readings indicate a tighter complex, high ones a looser complex. For `COc1cc(O)c2c(=O)c(O)c(-c3ccc(O)cc3)oc2c1` [RH, rhamnocitrin], the dissociation constant Kd in experiment [1] was 6.75 µM; in experiment [2], 2600 nM.
